Read-outs that look alike come from different tables or passages of the source.
Columns and labels:
Assay type in all cases: cell-based
SMMC-7721 = experiment: Cell cytotoxicity, MTT method; details: SMMC-7721, 72 hours, read-out: The cell cytotoxicity effect, IC50
Method: (§1) RAW 264.7 cells were obtained from the American Tissue Culture Collection (ATCC). Liver cancer line SMMC-7721 and HepG2, breast cancer lines including MCF-7 and MDA-MB-231 were purchased from cell-bank of Chinese Academy of Sciences, China. These cells were maintained in complete RPMI 1640 medium supplemented with 10% FBS at 37° C. in a humidified 5% CO2 atmosphere.
(§2) SMMC-7721 and HepG2, MCF-7 and MDA-MB-231 were seeded into 96-well plates (3×10^3 cells/well) and allowed to attach overnight. GE were added in final concentration of 50, 25, 12.5, 6.25, 3.125 μg/mL and continually cultured for 72 hours. Taxol as positive drug. Each well was incubated with 20 μl MTT (5 mg/ml in phosphate-buffered saline) for 4 hours at 37° C. Volume of 150 μl DMSO was added after the medium in well discarded and reacted for 10 minutes. Absorbance was measured at 490 nm. The optical density of formazan formed in control (untreated) cells was taken as 100% of viability. Mean value of each concentration (n=3 wells) was obtained.

HepG2 = experiment: Cell cytotoxicity, MTT method; details: HepG2, 72 hours, read-out: The cell cytotoxicity effect, IC50
Method: as §1, §2

MDA-MB-231 = experiment: Cell cytotoxicity, MTT method; details: MDA-MB-231, 72 hours
Method: as §1, §2

MCF-7 = experiment: Cell cytotoxicity, MTT method; details: read-out: The cell cytotoxicity effect, IC50
Method: as §1, §2

[1] = test system: iNOS-induced NO generation in RAW 264.7 cells; experiment: NO accumulation in LPS/IFN-γ stimulated RAW 264.7 cells (Griess reaction); details: 24 hours
Method: (§3) RAW264.7 were maintained in RPMI 1640 medium supplemented with 10% FBS at 37° C. in a humidified 5% CO2 atmosphere. Cells were plated in a 96-well plate (5×10^3 cells/well) and allowed to attach overnight. The cells were then stimulated with 10 U/ml of IFN-γ and 100 ng/ml of LPS for 24 hours in the presence or absence of GE with final concentration of 50, 25, 12.5, 6.25, 3.125 μg/mL, and Indometacin as positive drug.
as §3, with “For stimulation, the medium was replaced with fresh FBS-free RPMI 1640 for 10 hours, and the” for “The”, “extractions or fractions.” for “GE with final concentration of 50, 25, 12.5, 6.25, 3.125 μg/mL, and Indometacin as positive drug.”
iNOS function was analyzed with Griess reaction by assay of nitrite concentration in the culture supernatant. Briefly, 100 μl/well of sample was incubated with equal volume of Griess solution (1% sulfanilamide in 5% phosphoric acid+1% α-naphthylamine in distilled water) at room temperature for 10 minutes. The absorbance was evaluated at 540 nm using a calibration curve with a sodium nitrite standard. Percent inhibition was expressed as [1−(NO level of sample/NO level of vehicle treated−control)]×100.

[2] = test system: breast cancer lines and liver cancer lines; experiment: Cell cytotoxicity, MTT method (summary in conclusion)
Method: as §1, §2

Garcimultiflorone E [GE] was tested, and the IC50 (SMMC-7721) was 11.9 µM, the IC50 (HepG2) was 13.2 µM and the “Effect on proliferation (in words)” value (MDA-MB-231) was “no effect”. For the same compound, the IC50 (MCF-7; MCF-7, 72 hours) was 9.63 µM, the “The inhibitory effect on NO accumulation, IC50” value ([1]; RAW 264.7, 10 U/ml IFN-γ + 100 ng/ml LPS) was 3.57 µg/mL and the IC50 ([1]; RAW 264.7, 10 U/ml IFN-γ + 100 ng/ml LPS, read-out: The inhibitory effect on NO accumulation, IC50) was 5.78 µM. For the same compound, the “Concentration at which proliferation is inhibited” value [2] was “about 10 μM”.

For CC(=O)O[C@H]1C(=O)[C@@]2(C)[C@H]([C@H](OC(=O)c3ccccc3)[C@]3(O)C[C@H](OC(=O)[C@H](O)[C@@H](NC(=O)c4ccccc4)c4ccccc4)C(C)=C1C3(C)C)[C@]1(OC(C)=O)CO[C@@H]1C[C@@H]2O [Taxol, reference compound], the IC50 (SMMC-7721; Homo sapiens) was 0.15 µM, the IC50 (HepG2; Homo sapiens) was 0.00044 µM and the IC50 (MDA-MB-231; Homo sapiens, read-out: The cell cytotoxicity effect, IC50) was 5 µM. It also gave an IC50 (MCF-7; Homo sapiens, MCF7, MCF-7, 72 hours) of 0.003 µM.

In the case of COc1ccc2c(c1)c(CC(=O)O)c(C)n2C(=O)c1ccc(Cl)cc1 [Indometacin, reference compound], the inhibition at 1 µg/mL ([1]; Mus musculus, RAW264.7, 1 μg/mL, RAW 264.7, IFN-γ + LPS, read-out: The inhibitory effect on NO accumulation) is reported as 46.5%.

Source: US20140194529A1, “USAGE OF NATURAL COMPOUND FOR TREATING INFLAMMATION AND CANCER” (Hong Kong Baptist University, priority 2013, published 2014)
